The subject of this assay is MV-4-11 cells. The assay is described as follows: Gene expression microarray analysis (Affymetrix PrimeView) and GSEA. The assay is classed as cell-based, human. More on the design: RFU PODN (11730768_x_at) / Fold change /veh PODN (11730768_x_at) / RFU LINC00158 (11744669_a_at) / Fold change /veh LINC00158 (11744669_a_at) / RFU DUSP10 (11751237_a_at) / Fold change /veh DUSP10 (11751237_a_at) / RFU ID3 (11757404_x_at) / Fold change /veh ID3 (11757404_x_at) / RFU PLEKHG5 (11737974_s_at) / Fold change /veh PLEKHG5 (11737974_s_at) / RFU LRRC4B (11730491_at) / Fold change /veh LRRC4B (11730491_at) / RFU GIMAP4 (11747438_a_at) / Fold change /veh GIMAP4 (11747438_a_at) / RFU KRT8 (11758183_x_at) / Fold change /veh KRT8 (11758183_x_at) / RFU CNN1 (11734310_a_at) / Fold change /veh CNN1 (11734310_a_at) / RFU VPS37D (11726825_at) / Fold change /veh VPS37D (11726825_at) / RFU C10orf10 (11716522_x_at) / Fold change /veh C10orf10 (11716522_x_at) / RFU KIR2DL2 /// KIR2DL4 /// KIR2DL5A /// KIR2DL5B /// KIR2DS1 /// KIR2DS2 /// KIR2DS3 /// KIR2DS4 /// KIR3DL3 /// KIR3DL3 /// KIR3DS1 (11738374_at) / Fold change /veh KIR2DL2 /// KIR2DL4 /// KIR2DL5A /// KIR2DL5B /// KIR2DS1 /// KIR2DS2 /// KIR2DS3 /// KIR2DS4 /// KIR3DL3 /// KIR3DL3 /// KIR3DS1 (11738374_at) / RFU C1QL1 (11718748_at) / Fold change /veh C1QL1 (11718748_at) / RFU TMPRSS4 (11747572_a_at) / Fold change /veh TMPRSS4 (11747572_a_at) / RFU HAMP (11756126_x_at) / Fold change /veh HAMP (11756126_x_at) / RFU RNFT2 (11725882_a_at) / Fold change /veh RNFT2 (11725882_a_at) / RFU NR4A2 (11747474_a_at) / Fold change /veh NR4A2 (11747474_a_at) / RFU ABCC12 (11746883_a_at) / Fold change /veh ABCC12 (11746883_a_at) / RFU TMEM136 (11760407_x_at) / Fold change /veh TMEM136 (11760407_x_at) / RFU CLDN22 /// WWC2 (11732394_at) / Fold change /veh CLDN22 /// WWC2 (11732394_at) / RFU HLA-DPB1 (11760878_x_at) / Fold change /veh HLA-DPB1 (11760878_x_at) / RFU SPINT1 (11716480_a_at) / Fold change /veh SPINT1 (11716480_a_at) / RFU GAP43 (11754022_s_at) / Fold change /veh GAP43 (11754022_s_at) / RFU A4GNT (11735810_at) / Fold change /veh A4GNT (11735810_at) / RFU PRB3 (11715151_x_at) / Fold change /veh PRB3 (11715151_x_at) / RFU TUBB4B (11761932_at) / Fold change /veh TUBB4B (11761932_at) / RFU CAPN14 (11732068_a_at) / Fold change /veh CAPN14 (11732068_a_at) / RFU TMCC2 (11721928_a_at) / Fold change /veh TMCC2 (11721928_a_at) / RFU IRGQ (11745062_a_at) / Fold change /veh IRGQ (11745062_a_at) / RFU FAM174B (11720279_a_at) / Fold change /veh FAM174B (11720279_a_at) / RFU TMPRSS4 (11748680_a_at) / Fold change /veh TMPRSS4 (11748680_a_at) / RFU FAM212B (11763350_a_at) / Fold change /veh FAM212B (11763350_a_at) / RFU PLEKHG5 (11743358_a_at) / Fold change /veh PLEKHG5 (11743358_a_at) / RFU ZSCAN30 (11745921_a_at) / Fold change /veh ZSCAN30 (11745921_a_at) / RFU CMKLR1 (11741424_a_at) / Fold change /veh CMKLR1 (11741424_a_at) / RFU LOC101060620 /// MAPK8IP1 (11723275_at) / Fold change /veh LOC101060620 /// MAPK8IP1 (11723275_at) / RFU SPTSSB (11747773_x_at) / Fold change /veh SPTSSB (11747773_x_at) / RFU PRSS12 (11739890_at) / Fold change /veh PRSS12 (11739890_at) / RFU BIN1 (11741810_x_at) / Fold change /veh BIN1 (11741810_x_at) / RFU WNT11 (11732464_a_at) / Fold change /veh WNT11 (11732464_a_at) / RFU C10orf10 (11716521_a_at) / Fold change /veh C10orf10 (11716521_a_at) / RFU C5orf56 (11738089_at) / Fold change /veh C5orf56 (11738089_at) / RFU CYB561 (11721691_x_at) / Fold change /veh CYB561 (11721691_x_at) / RFU ANKRD19P (11752326_a_at) / Fold change /veh ANKRD19P (11752326_a_at) / RFU OR2T12 /// OR2T33 /// OR2T8 (11738714_s_at) / Fold change /veh OR2T12 /// OR2T33 /// OR2T8 (11738714_s_at) / RFU VCAN (11748164_a_at) / Fold change /veh VCAN (11748164_a_at) / RFU JSRP1 (11732532_at) / Fold change /veh JSRP1 (11732532_at) / RFU KRTAP10-11 (11738290_x_at) / Fold change /veh KRTAP10-11 (11738290_x_at) / RFU MYO3A (11730013_a_at) / Fold change /veh MYO3A (11730013_a_at) / RFU EBF3 (11725865_a_at) / Fold change /veh EBF3 (11725865_a_at) / RFU CAMK2N1 (11719241_x_at) / Fold change /veh CAMK2N1 (11719241_x_at) / RFU C5orf56 (11738088_a_at) / Fold change /veh C5orf56 (11738088_a_at) / RFU OLFML3 (11715873_a_at) / Fold change /veh OLFML3 (11715873_a_at) / RFU LOC100653217 /// NTM (11731650_a_at) / Fold change /veh LOC100653217 /// NTM (11731650_a_at) / RFU MAPK11 (11762145_a_at) / Fold change /veh MAPK11 (11762145_a_at) / RFU FIZ1 (11724087_x_at) / Fold change /veh FIZ1 (11724087_x_at) / RFU OASL (11726364_x_at) / Fold change /veh OASL (11726364_x_at) / RFU SOX15 (11748057_x_at) / Fold change /veh SOX15 (11748057_x_at) / RFU CD79A (11719716_a_at) / Fold change /veh CD79A (11719716_a_at) / RFU HIST1H1D (11736915_at) / Fold change /veh HIST1H1D (11736915_at) / RFU CASKIN2 (11723855_a_at) / Fold change /veh CASKIN2 (11723855_a_at) / RFU LOC730098 (11760151_x_at) / Fold change /veh LOC730098 (11760151_x_at) / RFU OR4N2 (11742367_at) / Fold change /veh OR4N2 (11742367_at) / RFU PRRT2 (11749266_a_at) / Fold change /veh PRRT2 (11749266_a_at) / RFU SNX32 (11753110_a_at) / Fold change /veh SNX32 (11753110_a_at) / RFU CDHR5 (11726645_a_at) / Fold change /veh CDHR5 (11726645_a_at) / RFU RCAN1 (11760418_a_at) / Fold change /veh RCAN1 (11760418_a_at) / RFU FAM167A (11723789_a_at) / Fold change /veh FAM167A (11723789_a_at) / RFU FAM26E (11764081_at) / Fold change /veh FAM26E (11764081_at) / RFU ISYNA1 (11749810_s_at) / Fold change /veh ISYNA1 (11749810_s_at) / RFU ACY1 (11761880_at) / Fold change /veh ACY1 (11761880_at) / RFU 11764098_at / Fold change /veh 11764098_at / RFU SAMD14 (11745864_x_at) / Fold change /veh SAMD14 (11745864_x_at) / RFU NPB (11741838_a_at) / Fold change /veh NPB (11741838_a_at) / RFU TMPRSS6 (11731388_a_at) / Fold change /veh TMPRSS6 (11731388_a_at) / RFU KRTAP10-2 (11738614_at) / Fold change /veh KRTAP10-2 (11738614_at) / RFU ARHGAP8 /// PRR5-ARHGAP8 (11727945_x_at) / Fold change /veh ARHGAP8 /// PRR5-ARHGAP8 (11727945_x_at) / RFU KRTAP5-7 /// NADSYN1 (11734609_at) / Fold change /veh KRTAP5-7 /// NADSYN1 (11734609_at) / RFU RASL12 (11751679_a_at) / Fold change /veh RASL12 (11751679_a_at) / RFU CDKN2B (11736163_a_at) / Fold change /veh CDKN2B (11736163_a_at) / RFU PRF1 (11729649_at) / Fold change /veh PRF1 (11729649_at) / RFU, ZNF638 /// ZNF638-IT1 / Fold change vs veh, ZNF638 /// ZNF638-IT1 / RFU, PANK3 / Fold change vs veh, PANK3 / RFU, SH3YL1 / Fold change vs veh, SH3YL1 / RFU, ZEB2 / Fold change vs veh, ZEB2 / RFU, NRIP1 / Fold change vs veh, NRIP1 / RFU, PTTG1IP / Fold change vs veh, PTTG1IP / RFU, CAPN2 / Fold change vs veh, CAPN2 / RFU, MED14 / Fold change vs veh, MED14 / RFU, SNORA58 / Fold change vs veh, SNORA58 / RFU, C1orf63 / Fold change vs veh, C1orf63 / RFU, LRRFIP1 / Fold change vs veh, LRRFIP1 / RFU, NDUFAF7 / Fold change vs veh, NDUFAF7 / RFU, SLC12A2 / Fold change vs veh, SLC12A2 / RFU, IBTK / Fold change vs veh, IBTK / RFU, ESF1 / Fold change vs veh, ESF1 / Fold change vs veh, TMEM50B / RFU, TAOK1 / Fold change vs veh, TAOK1 / RFU, ACBD3 / Fold change vs veh, ACBD3 / RFU, TMA16 / Fold change vs veh, TMA16 / RFU, RWDD3 / Fold change vs veh, RWDD3 / RFU, BCAT1 / Fold change vs veh, BCAT1 / RFU, EDEM3 / Fold change vs veh, EDEM3 / RFU, TMEM33 / Fold change vs veh, TMEM33 / RFU, WDR75 / Fold change vs veh, WDR75 / RFU, AHCTF1 / Fold change vs veh, AHCTF1 / RFU, TFRC / Fold change vs veh, TFRC / RFU, ZDHHC17 / Fold change vs veh, ZDHHC17 / RFU, NOM1 / Fold change vs veh, NOM1 / RFU, ARL8B / Fold change vs veh, ARL8B / RFU, ZBTB11 / Fold change vs veh, ZBTB11 / RFU, TAMM41 / Fold change vs veh, TAMM41 / RFU, KIAA1704 /// LOC100996395 / Fold change vs veh, KIAA1704 /// LOC100996395 / RFU, ING1 / Fold change vs veh, ING1 / RFU, TRMT61B / Fold change vs veh, TRMT61B / RFU, FUBP3 / Fold change vs veh, FUBP3 / RFU, TP53 / Fold change vs veh, TP53 / RFU, TNKS2 / Fold change vs veh, TNKS2 / RFU, ZFP14 / Fold change vs veh, ZFP14 / RFU, ACTR2 / Fold change vs veh, ACTR2 / RFU, PPP3R1 / Fold change vs veh, PPP3R1 / RFU, PIK3R1 / Fold change vs veh, PIK3R1 / RFU, HNRNPA1 / Fold change vs veh, HNRNPA1 / RFU, RNF170 / Fold change vs veh, RNF170 / RFU, ZNF28 / Fold change vs veh, ZNF28 / RFU, RNGTT / Fold change vs veh, RNGTT / RFU, OGT / Fold change vs veh, OGT / RFU, BRD1 / Fold change vs veh, BRD1 / RFU, MARS / Fold change vs veh, MARS / RFU, ZNF655 / Fold change vs veh, ZNF655 / RFU, FAHD1 / Fold change vs veh, FAHD1 / RFU, BDP1 / Fold change vs veh, BDP1 / RFU, LRRCC1 / Fold change vs veh, LRRCC1 / RFU, ARID1A / Fold change vs veh, ARID1A / RFU, ZNF146 / Fold change vs veh, ZNF146 / RFU, ZNF330 / Fold change vs veh, ZNF330 / RFU, GPN3 / Fold change vs veh, GPN3 / RFU, C9orf123 / Fold change vs veh, C9orf123 / RFU, N4BP2L2 / Fold change vs veh, N4BP2L2 / RFU, ARFIP1 / Fold change vs veh, ARFIP1 / RFU, FAM179B / Fold change vs veh, FAM179B / RFU, BCL10 / Fold change vs veh, BCL10 / RFU, UHRF1BP1L / Fold change vs veh, UHRF1BP1L / RFU, BET1 / Fold change vs veh, BET1 / RFU, CNOT2 / Fold change vs veh, CNOT2 / RFU, ZNF268 / Fold change vs veh, ZNF268 / Fold change vs veh, ZNF507 / RFU, DGCR2 / Fold change vs veh, DGCR2 / RFU, WDSUB1 / Fold change vs veh, WDSUB1 / Fold change vs veh, HSP90B1 /// MIR3652 / RFU, ADSS / Fold change vs veh, ADSS / RFU, GK / Fold change vs veh, GK / RFU, ZNF148 / Fold change vs veh, ZNF148 / RFU, TAF9 / Fold change vs veh, TAF9 / RFU, SLC1A5 / Fold change vs veh, SLC1A5 / RFU, SLMO2 / Fold change vs veh, SLMO2 / RFU, ABCC4 / Fold change vs veh, ABCC4 / RFU, LOC101060439 /// RAP1B / Fold change vs veh, LOC101060439 /// RAP1B / RFU, RFX7 / Fold change vs veh, RFX7 / RFU, GTPBP10 / Fold change vs veh, GTPBP10 / RFU, CNEP1R1 / Fold change vs veh, CNEP1R1 / RFU, BIVM-ERCC5 /// ERCC5 / Fold change vs veh, BIVM-ERCC5 /// ERCC5 / RFU, ILF3 / Fold change vs veh, ILF3 / RFU 11762660_at / Fold change /veh 11762660_at / RFU VCAN (11757783_s_at) / Fold change /veh VCAN (11757783_s_at) / RFU DDX43 (11728927_at) / Fold change /veh DDX43 (11728927_at) / RFU KRT8 (11758188_x_at) / Fold change /veh KRT8 (11758188_x_at) / RFU NKD1 (11759106_at) / Fold change /veh NKD1 (11759106_at) / RFU SRD5A1 (11742802_a_at) / Fold change /veh SRD5A1 (11742802_a_at) / RFU TPSAB1 /// TPSB2 (11721975_s_at) / Fold change /veh TPSAB1 /// TPSB2 (11721975_s_at) / RFU GSTM3 (11746129_a_at) / Fold change /veh GSTM3 (11746129_a_at) / RFU IL23R (11737362_x_at) / Fold change /veh IL23R (11737362_x_at) / RFU TMEM51 (11727254_a_at) / Fold change /veh TMEM51 (11727254_a_at) / RFU PIWIL2 (11732686_x_at) / Fold change /veh PIWIL2 (11732686_x_at) / RFU ORM1 (11744905_x_at) / Fold change /veh ORM1 (11744905_x_at) / RFU CCDC152 (11743942_at) / Fold change /veh CCDC152 (11743942_at) / RFU ECM1 (11717891_a_at) / Fold change /veh ECM1 (11717891_a_at) / RFU IL23R (11748794_a_at) / Fold change /veh IL23R (11748794_a_at) / RFU TNFAIP8L3 (11732012_x_at) / Fold change /veh TNFAIP8L3 (11732012_x_at) / RFU MBOAT4 (11741988_at) / Fold change /veh MBOAT4 (11741988_at) / RFU 11764193_at / Fold change /veh 11764193_at / RFU TMEM53 (11763286_at) / Fold change /veh TMEM53 (11763286_at) / RFU MAGEB2 (11727129_at) / Fold change /veh MAGEB2 (11727129_at) / RFU TMEM200A (11744735_a_at) / Fold change /veh TMEM200A (11744735_a_at) / RFU CCDC152 (11751479_a_at) / Fold change /veh CCDC152 (11751479_a_at) / RFU FAM211A (11726209_a_at) / Fold change /veh FAM211A (11726209_a_at) / RFU RGS16 (11746705_a_at) / Fold change /veh RGS16 (11746705_a_at) / RFU VCAN (11755009_s_at) / Fold change /veh VCAN (11755009_s_at) / RFU RHOB (11743442_s_at) / Fold change /veh RHOB (11743442_s_at) / RFU RGS16 (11720943_a_at) / Fold change /veh RGS16 (11720943_a_at) / RFU RGS16 (11720944_at) / Fold change /veh RGS16 (11720944_at) / RFU, VPS4B / Fold change vs veh, VPS4B / RFU, CREB1 / Fold change vs veh, CREB1 / RFU, DNAJC13 / Fold change vs veh, DNAJC13 / RFU, GNAQ / Fold change vs veh, GNAQ / RFU, CDK5R1 / Fold change vs veh, CDK5R1 / RFU, ZRANB3 / Fold change vs veh, ZRANB3 / RFU, CUL4A / Fold change vs veh, CUL4A / RFU, CCNY / Fold change vs veh, CCNY / RFU, UFL1 / Fold change vs veh, UFL1 / RFU, COG3 / Fold change vs veh, COG3 / RFU, DIAPH2 / Fold change vs veh, DIAPH2 / RFU, SKA2 / Fold change vs veh, SKA2 / RFU, AFF3 / Fold change vs veh, AFF3 / RFU, LMF1 / Fold change vs veh, LMF1 / RFU, IPO11 / Fold change vs veh, IPO11 / RFU, DFFB / Fold change vs veh, DFFB / RFU, FOXP1 / Fold change vs veh, FOXP1 / RFU, CARD8 / Fold change vs veh, CARD8 / RFU, STRN3 / Fold change vs veh, STRN3 / RFU, ADK / Fold change vs veh, ADK / RFU, RASSF2 / Fold change vs veh, RASSF2 / RFU, WIPF1 / Fold change vs veh, WIPF1 / RFU, LARP1B / Fold change vs veh, LARP1B / RFU, RASA1 / Fold change vs veh, RASA1 / RFU, RB1 / Fold change vs veh, RB1 / RFU, PPFIA1 / Fold change vs veh, PPFIA1 / RFU, MAT2A / Fold change vs veh, MAT2A / RFU, CCT5 / Fold change vs veh, CCT5 / RFU, WDR92 / Fold change vs veh, WDR92 / RFU, CUX1 / Fold change vs veh, CUX1 / RFU, TTC7A / Fold change vs veh, TTC7A / RFU, TMEM135 / Fold change vs veh, TMEM135 / RFU, DEPTOR / Fold change vs veh, DEPTOR / RFU, CPM / Fold change vs veh, CPM / RFU, DNAJB6 / Fold change vs veh, DNAJB6 / RFU, CACNA2D3 / Fold change vs veh, CACNA2D3 / RFU, DTX4 / Fold change vs veh, DTX4 / RFU, TFCP2 / Fold change vs veh, TFCP2 / RFU, GMCL1 /// GMCL1P1 / Fold change vs veh, GMCL1 /// GMCL1P1 / RFU, AEBP2 / Fold change vs veh, AEBP2 / RFU, SNHG1 /// SNORD22 /// SNORD25 /// SNORD26 /// SNORD27 /// SNORD28 /// SNORD29 /// SNORD31 / Fold change vs veh, SNHG1 /// SNORD22 /// SNORD25 /// SNORD26 /// SNORD27 /// SNORD28 /// SNORD29 /// SNORD31 / Fold change (Aza/veh), C12orf56 (ProbeSet 11735607_a_at) / Fold change (ACY-1035/veh), C12orf56 (ProbeSet 11735607_a_at) / Fold change (Aza/veh), FGFR1OP (ProbeSet 11751329_s_at) / Fold change (ACY-1035/veh), FGFR1OP (ProbeSet 11751329_s_at) / Fold change (Aza/veh), VPS36 (ProbeSet 11739960_a_at) / Fold change (ACY-1035/veh), VPS36 (ProbeSet 11739960_a_at) / RFU SYPL1 (11715823_x_at) / Fold change /veh SYPL1 (11715823_x_at) / RFU IGFBP7 (11715501_s_at) / Fold change /veh IGFBP7 (11715501_s_at) / RFU REEP3 (11722064_at) / Fold change /veh REEP3 (11722064_at) / RFU IGLL1 (11728026_x_at) / Fold change /veh IGLL1 (11728026_x_at): dose or concentration left out as unconfirmed. Conditions: MV-4-11 cells, 48 hours.

`Nc1ncn([C@@H]2O[C@H](CO)[C@@H](O)[C@H]2O)c(=O)n1` [azacitidine]: the “RFU CYB561 (11721691_x_at)” value amounted to 13.47 RFU.

The values are drawn from PMC5218480 (PLoS ONE, 2017).
